Tested on: conscious dogs
Test: Gastric emptying of an acaloric liquid test meal delayed by administration of lidamidine, in conscious dogs
Assay type: in vivo, beagle dogs
Settings: conscious dog; for ΔT/T^b (acceleration of gastric emptying of a liquid meal delayed by lidamidine): dose of 0.0025 mg/kg; for ΔT/T^a (acceleration of gastric emptying of a liquid meal delayed by lidamidine): dose of 0.01 mg/kg
Source text: C.1. Gastric Emptying of an Acaloric Liquid Test Meal Delayed by Administration of Lidamidine, in Conscious Dogs
Female beagle dogs, weighing 7-14 kg, were trained to stand quietly in Pavlov frames. They were implanted with a gastric cannula under general anesthesia and aseptic precautions. After a median laparatomy, an incision was made through the gastric wall in the longitudinal direction between the greater and the lesser curve, 2 cm above the nerves of Latarjet. The cannula was secured to the gastric wall by means of a double purse string suture and brought out via a stab wound at the left quadrant of the hypochondrium. Dogs were allowed a recovery period of at least two weeks. Experiments were started after a fasting period of 24 hours, during which water was available ad libitum. At the beginning of the experiment, the cannula was opened in order to remove any gastric juice or food remnants.
The stomach was cleansed with 40 to 50 ml lukewarm water. The test compound was administered I.V. (in a volume≦3 ml via the vena cephalica), S. C. (in a volume≦3 ml) or P. O. (in a volume of 1 ml/kg body weight, applied intragastrically via the cannula with a device that filled the lumen of the cannula; after injection of the test compound, 5 ml NaCl 0.9% was injected in order to correct for the dead space in the injection system). Immediately after administration of the test compound or its solvent, lidamidine 0.63 mg/kg was administered subcutaneously. 30 min later, the cannula was opened to determine the amount of fluid present in the stomach, promptly followed by reintroduction of the fluid. Then the test meal was administered via the cannula. This test meal consisted of 250 ml distilled water containing glucose (5 g/l) as a marker. The cannula remained closed for 30 min, whereafter the gastric contents were drained from the stomach to measure total volume (t=30 min). For later analysis 1 ml of the gastric contents was taken, promptly followed by reintroduction of the rest volume into the stomach. This sequence was repeated 4 times with 30 min intervals (t=60, 90, 120, 150 min).
In the 1 ml samples of the gastric contents, the glucose concentrations were measured on a Hitachi 717 automatic analyzer by the hexokinase method (Schmidt, 1961).
Curves were fitted to the measurement points (glucose versus time) using weighed non-linear regression analysis. Gastric emptying was quantified as the time needed to empty 70% of the meal (t70%). The control emptying time was calculated as the mean t70% of the last 5 solvent experiments of the same dog. Acceleration of delayed gastric emptying (Δt) was calculated as the time difference between t70% compound and t70% solvent. To correct for variations in emptying rate between dogs, Δt was expressed as % of t70% solvent (Schuurkes et al, 1992)).

[1] = compounds, Δt = t70% compound minus t70% solvent, relative to t70% solvent

Q: Which results are given for `COc1c(C(=O)NC[C@@H]2CCN(CCCC(C)=O)C[C@H]2O)cc(Cl)c(N)c1OC.O` (racemic) [Compound 14, (±)-trans-4-amino-5-chloro-N-[[3-hydroxy-1-(4-oxopentyl)-4-piperidinyl]methyl]-2,3-dimethoxybenzamide monohydrate]?
A: ΔT/T^b (acceleration of gastric emptying of a liquid meal delayed by lidamidine) [1]: −0.52; ΔT/T^a (acceleration of gastric emptying of a liquid meal delayed by lidamidine) [1]: −0.67

Q: With `CCCCN1CC[C@@H](CNC(=O)c2cc(Cl)c(N)c(OC)c2OC)[C@H](O)C1.O` (racemic) [Compound 9, (±)-trans-4-amino-N-[(1-butyl-3-hydroxy-4-piperidinyl)methyl] -5-chloro-2,3-dimethoxybenzamide monohydrate] as the compound, how does the “ΔT/T^b (acceleration of gastric emptying of a liquid meal delayed by lidamidine)” value [1] read?
A: Its value is −0.29.

Q: And the “ΔT/T^a (acceleration of gastric emptying of a liquid meal delayed by lidamidine)” value [1]?
A: Its value is −0.55.

Q: And the “ΔT/T^b (acceleration of gastric emptying of a liquid meal delayed by lidamidine)” value (intermediates)?
A: Its value is −0.40.

Q: And the “ΔT/T^a (acceleration of gastric emptying of a liquid meal delayed by lidamidine)” value (intermediates)?
A: Its value is −0.31.

Q: For `COCCCN1CC[C@@H](CNC(=O)c2cc(Cl)c(N)c(OC)c2OC)[C@H](O)C1` (racemic) [Compound 11, (±)-trans-4-amino-5-chloro-N-[[3-hydroxy-1-(3-methoxypropyl)-4-piperidinyl]methyl]-2,3-dimethoxybenzamide], which “ΔT/T^b (acceleration of gastric emptying of a liquid meal delayed by lidamidine)” value [1] is on record?
A: The value was −0.62.

Q: What about the “ΔT/T^a (acceleration of gastric emptying of a liquid meal delayed by lidamidine)” value [1] of the same compound?
A: Its value is −0.59.

Reference: US6750349B2, “Gastrokinetic monocyclic benzamides of 3-or 4-substituted 4-(aminoethyl)-piperidine derivatives” (Janssen Pharmaceutics, N.V., priority 1997, dated 2004)
